Reference: patent publication US6818215B2, “Antibodies to senescent cell-derived inhibiters of DNA synthesis” (priority 1991, dated 2004)

Tests used:
cdk2 protein = biological target: T1, cdk2 protein (Homo sapiens, UniProt P24941); test: Binding of in vitro translated SDI-1 deletion mutants to purified cdk2, anti-cdk2 immunoprecipitation; conditions: 45 μl translation product, 1 ug cdk2, 4° C.
T1 construct: host or cells: baculovirus expression system
Protocol: To determine whether the DNA synthesis inhibition caused by these mutants was occurring through inhibition of cdk kinases, the binding of in vitro translated deletion mutant proteins products with purified cdk2protein was examined. Thus, the various deletion mutants of SDI-1 were translated in reticulocyte lysates (Promega) using pBluescript based plasmids as transcription templates for the T7 RNA polymerase. For in vitro binding, 45 μl of the translation product was added to 500 μl binding buffer (50 mM Tris/HCl, pH 7.5, 120 mM NaCl, 2 mM EDTA, 0.1% NP-40, 1 mM NaF, 0.1 m.M sodium vanidate, 5 μg/ml leupeptin, 5 μg/ml soybean trypsin inhibitor, 5 μg/ml aprotinin) containing 1 ug cdk2 protein purified from a bacculovirus expression system. The mixture was gently rocked for 1 hour at 4° C. and then 7.5 μg anti-cdk2 rabbit polyclonal antibody was added. Mixing was continued for 1 hour at 4° C. The immunocomplex was absorbed by incubation with 40 μl protein G plus A beads for 2 hr. The matrices were then washed three times with 0.5 ml of binding buffer prior to electrophoresis and autoradiography.

SV 40 early promoter = test: CAT reporter transcription assay, SV-CAT; assay type: cell-based
Protocol: (§1) The effect of the human SDI-1 on transcription driven by two E2F-responsive promoters was determined. Proliferating A31 cells were transfected with an SDI-1 expression vector in which the SDI-1 cDNA was driven by the strong constitutive cytomegalovirus early promoter (CMV) together with a reporter vector in which the chloramphenicol acetyltransferase (CAT) gene was driven by either the hamster dihydrofolate reductase (DHFR) promoter or the human cdc2 promoter (cdc2-CAT). A31 cells are Balb/c murine 3T3 fibroblasts whose origin and growth properties have been described (Lu, K. et al., Molec. Cell. Biol. 9:3411-3417 (1989); Dimri, G. P et al., J. Biol. Chem. 269:16180-16186 (1994), herein incorporated by reference). Cells were transfected with 2 μg of expression vectors, reporters vectors (for transactivation) and the CMV-β-gal identification/normalization vector using Lipofectamine (Gibco-BRL), as described by Dimri, G. P et al. (J. Biol. Chem. 269:16180-16186 (1994), herein incorporated by reference), The vector backbone was added to the mixture as needed to equalize the amount of transfected DNA. Seventy-two hours later, the cells were lysed and assayed for chloramphenicol acetyl transferase (CAT) and β-galactosidase activity. Both DHFR and cdc2 were expressed by proliferating cells, largely due to E2F-mediated transcription that is dependent on E2F binding sites in the 5′ regulatory regions of these genes (Slansky, J. E. et al., Molec. Cell. Biol. 13:1610-1618 (1993); Dalton, S., EMBO J. 11:1797-1804 (1992)).
In sharp contrast to the response of the DHFR and cdc2 promoters, CMV-SDI-1 had little or no effect on reporter activity driven by either the SV 40 early promoter (SV-CAT or the c-fos promoter (fos-CAT) (Table 16). Neither the SV40 early genes nor c-fos has been reported to be E2F-responsive.

[1] = test system: hamster dihydrofolate reductase (DHFR) promoter; test: CAT reporter transcription assay, DHFR-CAT; assay type: cell-based
Protocol: as §1
The SDI-1 expression vector, CMV-SDI-1, but not the control vector, suppressed CAT activity driven by either the DHFR or cdc2 promoter (Table 16). CMV-SDI-1 was maximally inhibitory at above 2 μg of DNA under the assay conditions used. CAT activity in Table 16 is reported in counts per minute, normalized to the β-galactosidase activity. At this concentration, CMV-SDI-1 inhibited the DHFR promoter, which contains two strong E2F binding sites (Slansky, J. E. et al., Molec. Cell. Biol. 13:1610-1618 (1993)), somewhat more strongly than the cdc2 promoter, which contains a single E2F binding site (Dalton, S., EMBO J. 11:1797-1804 (1992)) (50-70% inhibition vs 40-50% inhibition). This difference in sensitivity is consistent with the finding that the DHFR promoter is somewhat more sensitive than the cdc2 promoter to stimulation by E2F1, a component of E2F (Dimri, G. P et al., J. Biol. Chem. 269:16180-16186 (1994)). At the concentrations used here, CMV-SDI-1 inhibited DHFR-CAT and cdc2-CAT expression to approximately the same extent that it inhibited DNA replication.

A31 cells = test: DNA synthesis in transfected (β-galactosidase positive) cells, radiolabeled nuclei; assay type: cell-based, murine
Protocol: as §1
These mutants included a naturally occurring SDI-1 variant (p21pm) in which the serine at amino acid 31 was replaced by an arginine. This polymorphism has been detected in approximately 10% of normal human cells thus far examined, and appears to result in a slight reduction in the antiproliferative properties of SDI-1 (Table 17). A SDI-1 expression vector for this allele (CMV-p21pm) was compared with CMV-SDI-1 for ability to inhibit DNA synthesis and E2F-mediated transactivation in proliferating A31 cells. […]

SDI-1: senescent cell derived inhibitor of DNA synthesis, 164 amino acid protein, SEQ ID NO:2
binding to purified cdk2 protein (cdk2 protein): bound cdk2 protein efficiently
% Activity (SV 40 early promoter; SDI-1 1.0 μg): 103%
% Inhibition (SV 40 early promoter; SDI-1 1.0 μg): 0%
Normalized CAT Activity (SV 40 early promoter; SDI-1 1.0 μg): 3743 counts per minute
% Activity (SV 40 early promoter; SDI-1 2.0 μg): 106%
% Inhibition (SV 40 early promoter; SDI-1 2.0 μg): 0%
Normalized CAT Activity (SV 40 early promoter; SDI-1 2.0 μg): 3828 counts per minute
% Activity (SV 40 early promoter; SDI-1 4.0 μg): 93%
% Inhibition (SV 40 early promoter; SDI-1 4.0 μg): 7%
Normalized CAT Activity (SV 40 early promoter; SDI-1 4.0 μg): 3366 counts per minute
% Activity ([1]; SDI-1 0.2 μg, A31 cells): 97%
% Inhibition ([1]; SDI-1 0.2 μg, A31 cells): 4%
Normalized CAT Activity ([1]; SDI-1 0.2 μg, A31 cells): 9155 counts per minute
% Activity ([1]; SDI-1 1.0 μg): 87%
% Inhibition ([1]; SDI-1 1.0 μg): 13%
Normalized CAT Activity ([1]; SDI-1 1.0 μg): 8196 counts per minute
% Activity ([1]; SDI-1 2.0 μg): 28%
% Inhibition ([1]; SDI-1 2.0 μg): 72%
Normalized CAT Activity ([1]; SDI-1 2.0 μg): 2613 counts per minute
% Activity ([1]; SDI-1 4.0 μg): 19%
% Inhibition ([1]; SDI-1 4.0 μg): 81%
Normalized CAT Activity ([1]; SDI-1 4.0 μg): 1757 counts per minute
inhibition (antiproliferative effect) (A31 cells; A31 cells): 65-75%
DNA Synthesis % LN (A31 cells; percentage of transfected cells with radiolabeled nuclei): 17%
DNA Synthesis % Inhibition (A31 cells; proliferating A31 cells): 75%
